This note sets out measurements from PubChem BioAssay AID2742 (NMMLSC, 2010).

Values joined by “and” are separate entries in the source; they are usually repeats but may differ in a detail not shown here. Identical values can stand only once. Active and inactive are the calls of the source.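 How the source made its calls: active means fitted half-maximal concentration for changing background-corrected GFP signal at or below a set limit; inactive means the rest.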

A short description of the assay: TOR pathway reporter MEP2-GFP, concentration series – S. cerevisiae, flow cytometry GFP, MLPCN hits, dose response (AID 2742).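 Further: GFP tag reports level of MEP2 protein as a downstream target of TOR signalling.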 The settings on record: S. cerevisiae MEP2-GFP strain, flow cytometry fluorescence, 3 h; at 33 µM (top of the series). (In general: A flow cytometer gives signals particle by particle.)
On to `C#CCOCCOCCOCCNc1nc(N2CCN(C(=O)CCCCCCCCCCNC(=O)[C@H](CCCCN)n3cc(CCO)nn3)CC2)nc(N2CCN(C(=O)CCCCCCCCCCNC(=O)[C@H](CCCN=C(N)N)n3cc(C[C@@H](C)CC)nn3)CC2)n1`, for which the GFP fluorescence (kMESF), higher = increase was 3.54 kMESF (inactive).
The figure for `COc1cc(C=C2C(=O)c3ccccc3C2=O)cc(OC)c1` is 2.05 kMESF (inactive).
For the compound `Cc1ccc(-c2nn(C(C)(C)C)c3ncnc(N)c23)cc1`, the GFP fluorescence (kMESF), higher = increase is 6.01 kMESF (inactive).
For `O=C1N(c2ccccc2C(F)(F)F)O[C@@]1(c1ccccc1)C1CCCCC1` the value was 2.87 kMESF (inactive).
With `Cc1cc(=O)n2c3c(sc2n1)C(=O)N(Cc1ccccc1)C3=O`, the GFP fluorescence (kMESF), higher = increase is 2.89 kMESF (inactive).
For `O=C1C(Cl)=C(N2CCN(Cc3ccccc3)CC2)C(=O)N1c1ccccc1` the value was 3.31 kMESF (inactive); for `Nc1nc(N)c2nc(CNc3ccc(C(=O)NC(CCC(=O)O)C(=O)O)cc3)cnc2n1` (centres undefined), 1.62 kMESF (inactive).
In the case of `CCOC(=O)CS(=O)(=O)c1nc(-c2ccccc2)cc(C(F)(F)F)n1`, the GFP fluorescence (kMESF), higher = increase is 6.41 kMESF (inactive).
For `CCC1(c2ccccc2)ON(c2c(Br)cccc2Br)C1=O` (centres undefined) the value was 3.17 kMESF (inactive); for `COc1cccc2sc(Nc3nc(-c4ccccn4)cs3)nc12`, 5.3 kMESF (inactive); for `COc1ccc(/C=C2/C(=O)ON=C2c2ccccc2)cc1OC`, 4.51 kMESF (inactive).
The figure for `C[C@@]12C(=O)OC(=O)[C@]1(C)C1CCC2O1` is 3.51 kMESF (inactive); for `CC[C@]1(c2ccccc2OC)ON(c2ccccc2C(F)(F)F)C1=O` it is 4.31 kMESF (inactive).
The figure for `Cc1ccccc1OCCOC(=O)c1ccc(S(=O)(=O)N2CCCC2)cc1` is 1.52 kMESF (inactive); for `O=C1c2cccc3c([N+](=O)[O-])ccc(c23)C(=O)N1CCc1ccccn1` it is 5.48 kMESF (inactive); for `Oc1ccc(CNc2ccccc2)c2cccnc12` it is 3.28 kMESF (inactive).
In the case of `CCOc1cc(C=C2C(=O)c3ccccc3C2=O)ccc1OCC(=O)Nc1ccc(C)cc1`, the GFP fluorescence (kMESF), higher = increase was 1.75 kMESF (inactive).
For `CCOc1ccc(NC2=C(Cl)C(=O)N(Cc3ccccc3)C2=O)cc1` the value was 3.61 kMESF (inactive).
The figure for `O=C(Oc1oc(-c2ccco2)nc1C=Nc1ccccc1)c1ccco1` is 4.57 kMESF (inactive); for `CC1=NOC(=O)/C1=C\c1ccc(-c2cc(Cl)ccc2Cl)o1` it is 4.04 kMESF (inactive); for `CC(=O)[C@]1(O)Cc2c(O)c3c(c(O)c2[C@@H](O[C@H]2C[C@H](N)[C@H](O)[C@H](C)O2)C1)C(=O)c1ccccc1C3=O` it is 4.71 kMESF (inactive).
For `O=[N+]([O-])c1ccc(S(=O)(=O)c2ccccc2)nc1` the value was 5.25 kMESF (inactive); for `Cc1ccc(S(=O)(=O)/N=C(\Sc2ccccc2)c2ccccc2)cc1`, 3.88 kMESF (inactive).
As to `N/C(Cc1ccc(Cl)cc1Cl)=N\OC(=O)c1cccs1`, the GFP fluorescence (kMESF), higher = increase was 4.76 kMESF (inactive).
With `O=[N+]([O-])c1cc(Cl)cc(/C=N\Nc2ccccn2)c1O`, the GFP fluorescence (kMESF), higher = increase is 4.91 kMESF (inactive).
On to `O=C(COc1c(Br)cc(Br)c2cccnc12)N1CCc2ccccc2C1`, for which the GFP fluorescence (kMESF), higher = increase is 4.11 kMESF (inactive).
For `CC(C)Oc1ccc(C(=O)/C=C2/C(=O)Nc3ccccc32)cc1` the value was 3.75 kMESF (inactive); for `Cc1ccc(N=c2ssnc2Cl)cc1`, 4.79 kMESF (inactive); for `O=C1C(Cl)=C(Nc2ccccc2O)C(=O)N1CCc1ccccc1`, 3.11 kMESF (inactive).
The figure for `N/C(Cc1ccc(Cl)cc1Cl)=N\OC(=O)c1ccccc1` is 2.82 kMESF (inactive).
For `COc1ccc(N2CCN(C(=O)c3ccccc3)CC2)c([N+](=O)[O-])c1` the value was 3.33 kMESF (inactive); for `O=C(Nc1nnc(-c2ccc(Cl)cc2)o1)c1ccccc1Br`, 4.01 kMESF (inactive); for `O=C1ON=C(c2ccc(Cl)cc2)/C1=C/c1ccc(O)cc1`, 3.61 kMESF (inactive).
In the case of `Cc1ccc(NC(=O)c2cc(N3C(=O)C=CC3=O)ccc2Cl)cc1C`, the GFP fluorescence (kMESF), higher = increase was 5.17 kMESF (inactive).
The figure for `CC[C@@]1(c2ccccc2OC)ON(c2ccccc2C(F)(F)F)C1=O` is 3.17 kMESF (inactive); for `COc1ccc(C(=O)NC(=S)NNC(=O)c2cnccn2)cc1` it is 3.91 kMESF (inactive); for `Cc1cc(/C=C2/SC(=S)N(c3cccc(Cl)c3)C2=O)c(C)n1-c1cccnc1` it is 8.22 kMESF (inactive).
`Cc1ccc(NC(=O)c2nc(S(=O)(=O)Cc3ccccc3)ncc2Cl)cc1`: the GFP fluorescence (kMESF), higher = increase was 3.33 kMESF (inactive).
Regarding `COc1cccc(/C=C2\SC(=S)N(CCCC(=O)Nc3ccc(C(=O)O)cc3)C2=O)c1`, the GFP fluorescence (kMESF), higher = increase is 1.55 kMESF (inactive).
The figure for `COc1ccc(/C=C/C(=O)NC(=S)NNC(=O)c2cnccn2)cc1` is 3.67 kMESF (inactive); for `C#CCOc1c(Br)cc(/C=C2/C(=O)ON=C2C)cc1OC` it is 3.64 kMESF (inactive); for `COc1ccc(-c2cc3nc4n(c(=O)c3s2)CCC4)cc1` it is 1.07 kMESF (inactive).
For `CS(=O)(=O)c1nc(-c2cccs2)cc(C(F)(F)F)n1` the value was 6.41 kMESF (inactive).
The figure for `COc1ccccc1C(=O)NNC(=S)NC(=O)c1cccs1` is 4.73 kMESF (inactive); for `CC1(c2ccccc2)ON(c2ccccc2C(F)(F)F)C1=O` (centres undefined) it is 4.18 kMESF (inactive).
For the compound `CC(=O)OC[C@]12CC[C@H]3[C@@](C)(CC[C@H]4C(C)(C)CCC[C@]34C)[C@@H]1C[C@H](C1=CC(=O)O[C@@H]1OC(C)=O)O2`, the GFP fluorescence (kMESF), higher = increase is 1.79 kMESF (inactive).
The figure for `O=C1N(c2ccccc2C(F)(F)F)O[C@]1(c1ccccc1)C1CCCCC1` is 3.28 kMESF (inactive).
The figure for `O=C1Nc2ccccc2/C1=C\C(=O)c1ccccc1` is 5.08 kMESF (inactive); for `CN1CCN(C(c2ccc(C(F)(F)F)cc2)c2ccc3cccnc3c2O)CC1` (centres undefined) it is 4.86 kMESF (inactive); for `N=C1/C(=C\c2coc3ccccc3c2=O)C(=O)N=C2SC(c3ccncc3)=NN12` it is -3.13 kMESF (inactive).
The figure for `N/C(=N\OC(=O)c1cc(Br)ccc1Cl)c1ccccn1` is 5.31 kMESF (inactive); for `O=[N+]([O-])c1cc(CN2CCN(c3ccccc3)CC2)c(O)c2ncccc12` it is 4.24 kMESF (inactive).
With `Cc1ccc(S(=O)(=O)Cc2cc(F)c([N+](=O)[O-])cc2[N+](=O)[O-])cc1`, the GFP fluorescence (kMESF), higher = increase is 0.65 kMESF (inactive).
Consider `O=C(/C=C/c1ccccc1Cl)c1ccccc(=O)c1O`, for which the GFP fluorescence (kMESF), higher = increase was -0.57 kMESF (inactive).
For `O=[N+]([O-])c1ccc(O)c2ncccc12` the value was 3.94 kMESF (inactive) and 3.38 kMESF (inactive); for `O=C(NC(=S)NNC(=O)c1ccc(Cl)cc1Cl)c1cccnc1`, 1.66 kMESF (inactive); for `COc1ccc([C@]2(C(C)C)ON(c3ccccc3C(F)(F)F)C2=O)cc1`, 2.67 kMESF (inactive).
The figure for `COc1cccc(N=Cc2nc(-c3ccccc3)oc2OC(C)=O)c1` is 3.64 kMESF (inactive); for `CCN1C(=O)/C(=C\C(=O)c2cccs2)c2cc(Br)ccc21` it is 9.04 kMESF (inactive); for `CC(C)(C)C1C/C(=C/c2ccccn2)C(=O)/C(=C/c2ccccn2)C1` (centres undefined) it is 2.67 kMESF (inactive).
The figure for `Clc1ccc(N=c2ssnc2Cl)cc1` is 4.8 kMESF (inactive); for `C=CCn1c(C)c(/C=C/c2cc[n+](C)cc2)c2ccccc21` it is 5.92 kMESF (inactive); for `O=C(Cc1ccc(Cl)cc1)NNC(=S)NC(=O)c1cccs1` it is 6.72 kMESF (inactive).
As for `Cc1cc(NC(c2ccc(Cl)cc2)c2ccc3cccnc3c2O)no1` (centres undefined), the GFP fluorescence (kMESF), higher = increase was 4.11 kMESF (inactive).
For `C=CCOc1ccc(C(=O)/C=C2/C(=O)Nc3ccccc32)cc1` the value was 3.85 kMESF (inactive).
For `COc1ccc(C(=O)/C=C2/C(=O)Nc3ccccc32)c(OC)c1` the value was 3.34 kMESF (inactive).
As for `CCOc1ccc(N2C(=O)C(Cl)=C(Nc3ccccc3O)C2=O)cc1`, the GFP fluorescence (kMESF), higher = increase is 4.31 kMESF (inactive).
For `O=C(c1ccc([N+](=O)[O-])o1)N1CCN(c2nc3c(F)cc(F)cc3s2)CC1` the value was -3.51 kMESF (inactive); for `Oc1c(I)cc(I)c2cccnc12`, 4.67 kMESF (inactive).
For `O=c1c2cc(Br)ccc2nc(-c2ccc([N+](=O)[O-])cc2)n1O` the value was 3.87 kMESF (inactive); for `O=C(c1ccc(Cl)c([N+](=O)[O-])c1)N1CCN(c2ccccc2)CC1`, 2.46 kMESF (inactive); for `CN(Cc1cnc2nc(N)nc(N)c2n1)c1ccc(C(=O)N[C@@H](CCC(=O)O)C(=O)O)cc1`, 2.67 kMESF (inactive) and 1.92 kMESF (inactive).
The figure for `CC(c1ccccc1)N1C(=O)/C(=C/c2ccncc2)SC1=S` (centres undefined) is 2.87 kMESF (inactive); for `O=C1NC(=S)NC(=O)C1=Cc1ccc2c(c1)CCN2CCCCl` it is 4.18 kMESF (inactive).
